Patent publication US7718705B1, “Methods of using rapid-onset selective serotonin reuptake inhibitors for treating sexual dysfunction” (Eli Lilly and Company, priority 2000, dated 2010)
Read-outs that look alike come from different tables or passages of the source.

Experiments:
[1] = Plasma concentration profile in volunteers (FIG. 1); format: in vivo, human; details: 20 volunteers, 40 mg dapoxetine at time zero of the 14th day of daily dosing
[2] = tested on: men presenting with premature ejaculation (PE) as defined in the DSM IV; experiment: Ejaculatory latency (stopwatch, intromission to ejaculation) in randomized, double-blind, three way crossover evaluation of prn dapoxetine; format: in vivo, human; details: for Percentage of patients achieving increases of at least one minute in EL: placebo 14%; for Increase of mean ejaculatory latency from baseline: placebo group 24 seconds
Method: The results of an interim analysis of a randomized, double-blind, three way crossover evaluation of two prn doses of dapoxetine (20 mg and 40 mg) in the treatment of premature ejaculation (hereinafter referred to as “PE”) are disclosed in tables 8a and 8b. Each patient is assigned to receive 4 to 6 administrations of each of the 3 study doses, in a random order, over 3 periods of not more than 4 weeks each. The interim analysis of the data was conducted following completion of the first treatment period.
The study comprised 155 men, aged 19 to 60, presenting with PE as defined in the DSM IV. All patients were involved in a stable monogamous sexual relationship of at least 6 months duration and reported a history of intravaginal ejaculatory latency (hereinafter referred to as “EL”) of less than 2 minutes in greater than half of their intercourse experiences. History of significant cardiovascular disease or psychiatric disorder, uncontrolled hypertension, erectile dysfunction, and substance abuse were criteria for exclusion.
(§1) During a lead-in period (maximum of 4 weeks), patients were asked to record ejaculatory latency a minimum of 4 times. Latency is defined as the time span, as measured by the patient's partner via a stopwatch, from vaginal intromission to ejaculation. At the completion of the lead-in period, patients were randomized to treatment with either 20 mg or 40 mg dapoxetine or placebo. Study medication was to be ingested 1 to 3 hours prior to a planned intercourse event. The time study drug was taken and time of intercourse were recorded in an event log. Patients were instructed to attempt intercourse at least 4 times over the 4 week treatment period and were issued a sufficient supply of medication to complete 6 attempts at intercourse. The outcome of each attempt (success of intromission and EL) was recorded in the event log initialed by the patient and their partner. Patients returned to the study clinic for a follow-up visit after 4 to 6 attempts at intercourse were completed. At visits 4, 5, and 6 patients were asked to answer the Global Satisfaction Questions and to complete the PEQ.
Of the 155 patients randomized, 145 completed the treatment period. 54 patients were randomized to the placebo group, while 56 and 45 received 20 mg or 40 mg dapoxetine respectively. Although patients were randomly assigned to treatment sequences in blocks of 6, the imbalance in the number of patients randomized to each group was due to the random distribution of the 40 mg assignment to later allocations within the blocks. The intent-to-treat population was comprised of 143 patients, each of whom had baseline and follow-up data for analysis. Analysis of EL was conducted on the 138 patients who had latency data at baseline and at least one post-medication event. The percentage of patients with data sufficient for inclusion in the analysis of EL was lower in the 40 mg group than in either of the other 2 groups. This difference may be attributable to the smaller size of the 40 mg group, such that each patient represents a greater percentage of the whole, rather than being a function of the dose administered. […]

[3] = tested on: men presenting with premature ejaculation (PE) as defined in the DSM IV; experiment: Global Satisfaction Question in the crossover evaluation of prn dapoxetine; format: in vivo, human
Description: The patient-perceived-benefit of prn dosing method with dapoxetine, or a pharmaceutically acceptable salt thereof, can be determined, for example, through administration of a global satisfaction question, such as:
“How would you complete the following statement?
The new bottle of medication that I received at my previous visit made my premature ejaculation problem:
Measures for “ejaculatory latency” and “number of thrusts prior to ejaculation” should be recorded as the average of the 4-6 events recorded in the event logs for that treatment period. Subjects who ejaculated prior to intromission should have a zero recorded for both “ejaculatory latency” and “number of thrusts prior to ejaculation.” “Measures for Subject and Partner satisfaction scores (global impression)” and “Subject and Partner ejaculatory (or sexual) quality-of-life questionnaire” for each treatment period should be based on the score collected at the visit immediately following each treatment period.
as §1
The results of a final analysis of a randomized, double-blind, three way crossover evaluation of two prn doses of dapoxetine (20 mg and 40 mg) in the treatment of premature ejaculation are disclosed in the following tables. The final analyses of the data was conducted following completion of all 3 treatment periods.

[4] = tested on: patients (premature ejaculation); details: cited from earlier work
[5] = tested on: patients suffering from premature ejaculation; details: 26 patients, cited from earlier work
[6] = tested on: patients (premature ejaculation); details: fluoxetine continuous then prn dosing; cited from earlier work
[7] = tested on: potent men with premature ejaculation; details: 37 men, 50 mg oral sertraline; cited from earlier work
[8] = final analysis, all patients, 20 mg prn
[9] = final analysis, all patients, 40 mg prn
[10] = patients with baseline less than one minute, 20 mg prn
[11] = patients with baseline less than one minute, 40 mg prn
[12] = patients with baseline less than two minutes, 20 mg prn
[13] = patients with baseline less than two minutes, 40 mg prn
[14] = patients with baseline ≧ one minute, 40 mg prn
[15] = patients with baseline ≧ two minutes, 40 mg prn

For `CN(C)[C@@H](CCOc1cccc2ccccc12)c1ccccc1` [Dapoxetine, (S)-(+)-N,N-Dimethyl-1-phenyl-3-(1-naphthalenyloxy)-propanamine], the “Plasma concentration profile (in words)” value [1] was “rapid-onset to reach peak plasma concentration followed by rapid metabolism (i.e. short half-life)”, the “Ejaculatory Latency (LS Mean)” value ([2]; "Moderate" patients, baseline 1.68, 20 mg prn) was 2.64 min and the “Ejaculatory Latency (LS Mean)” value ([2]; "Moderate" patients, baseline 1.68, 40 mg prn) was 2.93 min. For the same molecule, the “Change in Latency (LS Mean)” value ([2]; "Moderate" patients, 20 mg prn) was 0.94 min, the “Change in Latency (LS Mean)” value ([2]; "Moderate" patients, 40 mg prn) was 1.27 min and the “Ejaculatory Latency (LS Mean)” value ([2]; "Severe" patients, baseline 1.23, 20 mg prn) was 2.60 min. The “Ejaculatory Latency (LS Mean)” value ([2]; "Severe" patients, baseline 1.23, 40 mg prn) was 3.09 min, the “Change in Latency (LS Mean)” value ([2]; "Severe" patients, 20 mg prn) was 1.42 min and the “Change in Latency (LS Mean)” value ([2]; "Severe" patients, 40 mg prn) was 1.93 min. The “Change in Latency (LS Mean)” value [2, 8] was 1.43 min, the “Ejaculatory Latency (LS Mean)” value [2, 8] was 2.78 min and the “Change in Latency (LS Mean)” value [2, 9] was 1.86 min. For the same molecule, the “Ejaculatory Latency (LS Mean)” value [2, 9] was 3.19 min, the “Ejaculatory Latency (LS Mean)” value ([2]; final analysis, patients with baseline less than one minute, 20 mg prn) was 1.2 min and the “Ejaculatory Latency (LS Mean)” value ([2]; final analysis, patients with baseline less than one minute, 40 mg prn) was 1.7 min. The “Treatment of premature ejaculation with the first dose (in words)” value ([2]; first dose administered, no lead-in period (Table 12)) was “can effectively and unexpectedly treat premature ejaculation with the first dose administered to a patient”, the “Ejaculatory latency, Mean ± S.D.” value ([2]; interim analysis, follow-up, first treatment period, 20 mg prn, 50 patients) was 2.3 ± 2.26 min and the “Ejaculatory latency, Mean ± S.D.” value ([2]; interim analysis, follow-up, first treatment period, 40 mg prn, 37 patients) was 2.3 ± 2.19 min. For the same molecule, the “Ejaculatory latency, Range” value ([2]; interim analysis, follow-up, 20 mg prn) was 0.1 to 11.4 min, the “Ejaculatory Latency (LS Mean)” value ([2]; interim analysis, follow-up, 20 mg prn, adjusted for baseline and sample size) was 2.41 min and the “Ejaculatory latency, Range” value ([2]; interim analysis, follow-up, 40 mg prn) was 0.0 to 9.8 min. For the same molecule, the “Ejaculatory Latency (LS Mean)” value ([2]; interim analysis, follow-up, 40 mg prn, adjusted for baseline and sample size) was 2.52 min, the “Ejaculatory latency, Range” value ([2]; interim analysis, follow-up, 20 & 40 mg combined) was 0.0 to 11.4 min and the “Ejaculatory latency, Mean ± S.D.” value ([2]; interim analysis, follow-up, 20 & 40 mg combined, 87 patients) was 2.3 ± 2.22 min. For the same molecule, the “Percentage of patients achieving increases of at least one minute in EL” value ([2]; interim analysis, 20 mg prn) was 22%, the “Increase of mean ejaculatory latency from baseline” value ([2]; interim analysis, 20 mg prn) was “one” and the “Percentage of patients achieving increases of at least one minute in EL” value ([2]; interim analysis, 40 mg prn) was 24%. The “Increase of mean ejaculatory latency from baseline” value ([2]; interim analysis, 40 mg prn) was “one”, the “Change in Latency (LS Mean)” value [2, 10] was 0.6 min and the “Change in Latency (LS Mean)” value [2, 11] was 1.3 min. The “Change in Latency (LS Mean)” value [2, 12] was 1.4 min, the “Ejaculatory Latency (LS Mean)” value [2, 12] was 2.4 min and the “Change in Latency (LS Mean)” value [2, 13] was 1.5 min. For the same molecule, the “Ejaculatory Latency (LS Mean)” value [2, 13] was 2.5 min, the “Ejaculatory Latency (LS Mean)” value ([2]; patients with baseline ≧ one minute, baseline 1.90, 40 mg prn) was 4.24 min and the “Change in Latency (LS Mean)” value [2, 14] was 2.40 min. For the same molecule, the “Ejaculatory Latency (LS Mean)” value ([2]; patients with baseline ≧ two minutes, baseline 3.19, 40 mg prn) was 6.59 min, the “Change in Latency (LS Mean)” value [2, 15] was 3.43 min and the “Ejaculatory Latency (LS Mean)” value ([2]; recorded after administration of a single dose, 20 mg) was 2.37 ± 0.24 min. For the same molecule, the “Ejaculatory Latency (LS Mean)” value ([2]; recorded after administration of a single dose, 40 mg) was 1.98 ± 0.27 min, the “Global Satisfaction: Better/Much Better” value ([3]; "Moderate" patients, 20 mg prn) was 34.4% and the “Global Satisfaction: ≧Slightly Better” value ([3]; "Moderate" patients, 20 mg prn) was 51.6%. For the same molecule, the “Global Satisfaction: Better/Much Better” value ([3]; "Moderate" patients, 40 mg prn) was 50%, the “Global Satisfaction: ≧Slightly Better” value ([3]; "Moderate" patients, 40 mg prn) was 66.7% and the “Global Satisfaction: Better/Much Better” value ([3]; "Severe" patients, 20 mg prn) was 17.2%. For the same molecule, the “Global Satisfaction: ≧Slightly Better” value ([3]; "Severe" patients, 20 mg prn) was 48.5%, the “Global Satisfaction: Better/Much Better” value ([3]; "Severe" patients, 40 mg prn) was 25.5% and the “Global Satisfaction: ≧Slightly Better” value ([3]; "Severe" patients, 40 mg prn) was 54.1%. For the same molecule, the “Global Satisfaction: Better/Much Better” value [3, 10] was 13%, the “Global Satisfaction: ≧Slightly Better” value [3, 10] was 38% and the “Global Satisfaction: Better/Much Better” value [3, 11] was 24%. For the same molecule, the “Global Satisfaction: ≧Slightly Better” value [3, 11] was 46%, the “Global Satisfaction: Better/Much Better” value [3, 12] was 23% and the “Global Satisfaction: ≧Slightly Better” value [3, 12] was 50%. The “Global Satisfaction: Better/Much Better” value [3, 13] was 29%, the “Global Satisfaction: ≧Slightly Better” value [3, 13] was 50% and the “Global Satisfaction: Better/Much Better” value [3, 14] was 36.4%. The “Global Satisfaction: ≧Slightly Better” value [3, 14] was 65.0%, the “Global Satisfaction: Better/Much Better” value [3, 15] was 39.1% and the “Global Satisfaction: ≧Slightly Better” value [3, 15] was 65.2%.

For `Fc1ccc([C@@H]2CCNC[C@H]2COc2ccc3c(c2)OCO3)cc1` [paroxetine], the “Patients with improved ejaculatory latency” value ([4]; 20 mg prn paroxetine) is given as 42%, the “Patients initially improved with continuous dosing that lost benefit after switching to prn dosing” value ([4]; paroxetine continuous then prn dosing) is given as 37% and the “Ejaculatory latency (in words)” value ([5]; prn 20 mg paroxetine tablet 3-4 hours prior to intercourse) is given as “statistically significant increase in ejaculatory latency in the second through fourth weeks of paroxetine treatment but not in the first week”. For the same molecule, the “Frequency of intercourse (in words)” value ([5]; prn 20 mg paroxetine) was “significantly increased only after 3 weeks of prn paroxetine therapy”.

For `CNCCC(Oc1ccc(C(F)(F)F)cc1)c1ccccc1` (stereo not drawn) [fluoxetine], the “Patients initially improved with continuous dosing that lost benefit after switching to prn dosing” value [6] is listed as 100%.

For `CN[C@H]1CC[C@@H](c2ccc(Cl)c(Cl)c2)c2ccccc21` [sertraline], the “Conclusion on treatment of premature ejaculation (in words)” value [7] is given as “appeared to be a useful and well tolerated oral treatment for premature ejaculation after 1 to 2 weeks”.
